From EP0624315B1, “Diaryl(pyridinio and isoquinolinio) boron fungicidal agents” (AMERICAN CYANAMID COMPANY, priority 1993, dated 1994) come the findings set out here.

Assay [1] deals with Pseudocercosporella herpotrichoides (Psdche). In words: In vitro fungicidal evaluation, mycelial growth inhibition in nutrient broth. Note: ranges in brackets are in %. Format: cell-based. Conditions: 25 ppm, 3-4 days at 21°C, rated visually. As to the method: (§1) Test compounds are dissolved or suspended in acetone and dispersed into cell well plates containing a suspension of ground fungal mycelia in a nutrient broth. Assay plates are incubated for 3-4 days at 21°C. Growth inhibition is measured visually and is rated using the following scale:
(§2) Untreated controls, solvent blanks and reference standards are included in each test.
(§3) Assay fungi include the plant pathogens, Pythium ultimum (Pythul); Rhizoctonia solani (Rhizso); Fusarium oxysporum f. sp. cucumerinum (Fusoxc); and Pseudocercosporella herpotrichoides (Psdche).
(§4) When more than one test is run, the data are averaged. The compouds evaluated are reported by compound number given in Example 5.

In assay [2] the test system is Pythium ultimum (Pythul). Described as above. Format: cell-based. Conditions: 25 ppm, 3-4 days at 21°C, rated visually. The protocol: as §1, §2, §3, §4; note: ranges in brackets are in %
The subject of assay [3] is Rhizoctonia solani (Rhizso). Described as above. It counts as cell-based. Conditions: 25 ppm, 3-4 days at 21°C, rated visually. As to the method: as §1, §2, §3, §4
The subject of assay [4] is Fusarium oxysporum f. sp. cucumerinum (Fusoxc). Described as above. Format: cell-based. Conditions: 25 ppm, 3-4 days at 21°C, rated visually. The protocol: as §1, §2, §3, §4
The subject of assay [5] is Botrytis cinerea. In words: In vivo fungicidal evaluation, Pepper Botrytis. Note: ranges in brackets are in %. Conditions: 200 ppm, host plants sprayed, dried, then inoculated.
The test system of assay [6] is Venturia inaequalis. In words: In vivo fungicidal evaluation, Apple Scab. Note: ranges in brackets are in %. Conditions: 200 ppm, host plants sprayed, dried, then inoculated.
Assay [7] relates to Erysiphe graminis f. sp. tritici. In words: In vivo fungicidal evaluation, Wheat Powdery Mildew. Note: ranges in brackets are in %. Conditions: 200 ppm, host plants sprayed, dried, then inoculated.
The test system of assay [8] is Alternaria solani. In words: In vivo fungicidal evaluation, Tomato Early Blight. Note: ranges in brackets are in %. Conditions: 200 ppm, host plants sprayed, dried, then inoculated.
For assay [9], the system named is Plasmopara viticola. In words: In vivo fungicidal evaluation, Grape Downy Mildew. Note: ranges in brackets are in %. Conditions: 200 ppm, host plants sprayed, dried, then inoculated.
In assay [10] the test system is Cercospora beticola. In words: In vivo fungicidal evaluation, Sugar Beet Cercospora. Note: ranges in brackets are in %. Conditions: 200 ppm, host plants sprayed, dried, then inoculated.
Assay [11] concerns Pyricularia oryzae. It counts as in vivo. Conditions: 200 ppm, host plants sprayed, dried, then inoculated.
Assay [12] has as its system Puccinia recondita f. sp. tritici. In words: In vivo fungicidal evaluation, Wheat Leaf Rust. Note: ranges in brackets are in %. Conditions: 200 ppm, host plants sprayed, dried, then inoculated.
Throughout, for FUSOXC growth inhibition rating: ranges in brackets are in %.
Throughout, for RHIZSO growth inhibition rating: ranges in brackets are in %.

Regarding `C[B-](c1ccccc1)(c1ccccc1)[n+]1ccc(-c2ccccc2)cc1` [Compound 17, (4-Phenylpyridinio)methyldiphenylboron], the “PSDCHE growth inhibition rating” value in [1] is 7 (90 - 99). In assay [2], the “PHTHUL growth inhibition rating” value is recorded as 0 (0). Further, in assay [3], the “RHIZSO growth inhibition rating” value is reported as 5 (60 - 89). In addition, the “FUSOXC growth inhibition rating” value in [4] is recorded as 7 (90 - 99). In addition, in assay [5], the “PB (Pepper Botrytis) disease control rating” value (“PB” for short) is on record as 9 (100). Besides, the “AS (Apple Scab) disease control rating” value in assay [6] is reported as 9 (100). In addition, the “WPM (Wheat Powdery Mildew) disease control rating” value (“WPM” for short) in assay [7] is given as 8 (96 - 99). Also, the “TEB (Tomato Early Blight) disease control rating” value (“TEB” below) in [8] was 9 (100). For the same molecule, the “GDM (Grape Downy Mildew) disease control rating” value (“GDM” for short) in assay [9] was 9 (100). Besides, the “SBC (Sugar Beet Cercospora) disease control rating” value (“SBC” below) in assay [10] was 8 (96 - 99). For the same molecule, the “RB (Rice Blast) disease control rating” value in assay [11] was 8 (96 - 99).

For `CC(=O)c1cc[n+]([B-](C)(c2ccccc2)c2ccccc2)cc1` [Compound 19, (4-Acetylpyridinio)methyldiphenylboron], the “PSDCHE growth inhibition rating” value in [1] is given as 9 (100). Moreover, the “PHTHUL growth inhibition rating” value in assay [2] is given as 7 (90 - 99). For the same molecule, the “RHIZSO growth inhibition rating” value in assay [3] was 7 (90 - 99). For the same molecule, the “FUSOXC growth inhibition rating” value in assay [4] is 7 (90 - 99). Also, the “PB” value in assay [5] was 9 (100). Further, the “AS (Apple Scab) disease control rating” value in assay [6] is listed as 9 (100). For the same molecule, the “WPM” value in [7] was 8 (96 - 99). In assay [8], the “TEB” value was 8 (96 - 99). Also, in [9], the “GDM” value is on record as 9 (100). For the same molecule, in assay [10], the “SBC” value is on record as 9 (100). Moreover, the “RB (Rice Blast) disease control rating” value in [11] is 8 (96 - 99).

With `C[B-](c1ccccc1)(c1ccccc1)[n+]1ccc(C(C)(C)C)cc1` [Compound 20, (4-Tert-butyl-pyridinio)methyldiphenylboron], the “PSDCHE growth inhibition rating” value in [1] was 7 (90 - 99). Further, in [2], the “PHTHUL growth inhibition rating” value is on record as 7 (90 - 99). Further, the “RHIZSO growth inhibition rating” value in assay [3] was 7 (90 - 99). Moreover, the “FUSOXC growth inhibition rating” value in assay [4] was 7 (90 - 99). Moreover, in assay [5], the “PB” value was 9 (100). Besides, in assay [6], the “AS (Apple Scab) disease control rating” value is reported as 9 (100). For the same molecule, the “WPM” value in [7] was 7 (90 - 95). Moreover, in [8], the “TEB” value is on record as 8 (96 - 99). The “GDM” value in assay [9] is 9 (100). In addition, the “SBC” value in [10] is 9 (100). The “RB (Rice Blast) disease control rating” value in assay [11] is 8 (96 - 99).

As to “(3-Butylpyridinio)methyldiphenylboron [Compound 3]”, the “PSDCHE growth inhibition rating” value in assay [1] is 9 (100). The “PHTHUL growth inhibition rating” value in [2] is listed as 9 (100). For the same molecule, the “RHIZSO growth inhibition rating” value in assay [3] is 9 (100). In addition, the “FUSOXC growth inhibition rating” value in assay [4] is given as 9 (100). In addition, the “PB” value in assay [5] is listed as 6 (75 - 89). Besides, the “AS (Apple Scab) disease control rating” value in [6] is on record as 9 (100). Further, in assay [7], the “WPM” value is reported as 8 (96 - 99). Besides, the “TEB” value in assay [8] is 8 (96 - 99). Also, in assay [9], the “GDM” value is recorded as 9 (100). The “WLR (Wheat Leaf Rust) disease control rating” value (“WLR” for short) in [12] was 8 (96 - 99). Further, the “SBC” value in assay [10] is 0 (0). Moreover, in assay [11], the “RB (Rice Blast) disease control rating” value is given as 0 (0).

As to “(4-Cyanopyridinio)methyldiphenylboron [Compound 16]”, the “PSDCHE growth inhibition rating” value in assay [1] is on record as 9 (100). Further, in [2], the “PHTHUL growth inhibition rating” value is reported as 7 (90 - 99). Besides, in assay [3], the “RHIZSO growth inhibition rating” value is given as 7 (90 - 99). The “FUSOXC growth inhibition rating” value in assay [4] is 7 (90 - 99). Further, the “PB” value in assay [5] is listed as 8 (96 - 99). The “AS (Apple Scab) disease control rating” value in [6] is 9 (100). Further, in assay [7], the “WPM” value is 0 (0). Further, the “TEB” value in [8] is reported as 8 (96 - 99). Also, the “GDM” value in assay [9] is 9 (100). Further, the “SBC” value in [10] is 8 (96 - 99). For the same molecule, the “RB (Rice Blast) disease control rating” value in assay [11] was 9 (100).

For the molecule “(5,6,7,8-Tetrahydroisoquinolinio)methyldiphenylboron [Compound 4]”, the “PSDCHE growth inhibition rating” value in assay [1] is reported as 9 (100). The “PHTHUL growth inhibition rating” value in assay [2] was 7 (90 - 99). Further, the “RHIZSO growth inhibition rating” value in assay [3] was 9 (100). For the same molecule, the “FUSOXC growth inhibition rating” value in assay [4] is 9 (100). Besides, in assay [5], the “PB” value is on record as 9 (100). Also, the “AS (Apple Scab) disease control rating” value in [6] was 9 (100). In addition, in assay [7], the “WPM” value is 8 (96 - 99). Further, in assay [8], the “TEB” value is reported as 6 (75 - 89). The “GDM” value in assay [9] is listed as 9 (100). Moreover, in [12], the “WLR” value is 9 (100). Moreover, in assay [10], the “SBC” value is given as 8 (96 - 99). The “RB (Rice Blast) disease control rating” value in assay [11] is listed as 0 (0).

Turning to “Bis(p-fluorophenyl)(isoquinolinio)methylboron [Compound 13]”, the “PSDCHE growth inhibition rating” value in [1] is 9 (100). Besides, in assay [2], the “PHTHUL growth inhibition rating” value is 9 (100). For the same molecule, in assay [3], the “RHIZSO growth inhibition rating” value was 9 (100). In assay [4], the “FUSOXC growth inhibition rating” value is recorded as 9 (100). In addition, the “PB” value in [5] is listed as 9 (100). Further, the “AS (Apple Scab) disease control rating” value in assay [6] was 7 (90 - 95). For the same molecule, the “WPM” value in assay [7] is on record as 8 (96 - 99). Besides, the “TEB” value in [8] was 8 (96 - 99). Besides, the “GDM” value in assay [9] is reported as 9 (100). The “WLR” value in assay [12] is 7 (90 - 95). The “SBC” value in assay [10] is recorded as 8 (96 - 99). In assay [11], the “RB (Rice Blast) disease control rating” value is 7 (90 - 95).

Turning to “Bis(p-fluorophenyl)methyl(5-nitroisoquinolinio)boron [Compound 15]”, the “PSDCHE growth inhibition rating” value in assay [1] was 9 (100). For the same molecule, the “PHTHUL growth inhibition rating” value in assay [2] is given as 9 (100). The “RHIZSO growth inhibition rating” value in [3] was 9 (100). In [4], the “FUSOXC growth inhibition rating” value is recorded as 9 (100). The “PB” value in assay [5] is recorded as 9 (100). Besides, the “AS (Apple Scab) disease control rating” value in assay [6] is listed as 9 (100). Further, the “WPM” value in assay [7] is on record as 0 (0). Further, in [8], the “TEB” value was 4 (45 - 59). In addition, in assay [9], the “GDM” value is recorded as 0 (0). For the same molecule, the “WLR” value in [12] is 0 (0). Also, the “SBC” value in assay [10] is 7 (90 - 95). For the same molecule, the “RB (Rice Blast) disease control rating” value in [11] is on record as 3 (30 - 44).

Regarding “Butoxy(3-methylpyridinio)diphenylboron [Compound 10]”, in assay [1], the “PSDCHE growth inhibition rating” value is given as 7 (90 - 99). For the same molecule, the “PHTHUL growth inhibition rating” value in assay [2] is 9 (100). The “RHIZSO growth inhibition rating” value in assay [3] is listed as 9 (100). Besides, the “FUSOXC growth inhibition rating” value in assay [4] was 9 (100). Moreover, in assay [5], the “PB” value is recorded as 6 (75 - 89). Further, the “AS (Apple Scab) disease control rating” value in [6] is recorded as 0 (0). In addition, the “WPM” value in [7] was 0 (0). For the same molecule, the “TEB” value in [8] is listed as 0 (0). Further, in [9], the “GDM” value was 3 (30 - 44). Besides, in [12], the “WLR” value is 0 (0). Moreover, the “SBC” value in assay [10] is listed as 0 (0). In addition, the “RB (Rice Blast) disease control rating” value in assay [11] is listed as 0 (0).

Turning to “Butoxy(4-isopropylpyridinio)diphenylboron [Compound 11]”, in [1], the “PSDCHE growth inhibition rating” value is 7 (90 - 99). Also, the “PHTHUL growth inhibition rating” value in assay [2] is on record as 9 (100). Further, the “RHIZSO growth inhibition rating” value in assay [3] is 9 (100). For the same molecule, the “FUSOXC growth inhibition rating” value in assay [4] is 9 (100). Further, the “PB” value in assay [5] is 4 (45 - 59). In addition, the “AS (Apple Scab) disease control rating” value in assay [6] is listed as 8 (96 - 99). The “WPM” value in assay [7] was 0 (0). Also, the “TEB” value in [8] is on record as 0 (0). Besides, in assay [9], the “GDM” value was 0 (0). For the same molecule, in [12], the “WLR” value is reported as 0 (0). Moreover, the “SBC” value in assay [10] is 0 (0). Also, the “RB (Rice Blast) disease control rating” value in assay [11] is on record as 0 (0).

As to “Butoxy(4-methylpyridinio)diphenylboron [Compound 9]”, the “PSDCHE growth inhibition rating” value in assay [1] is 0 (0). For the same molecule, the “PHTHUL growth inhibition rating” value in [2] is recorded as 9 (100). The “RHIZSO growth inhibition rating” value in assay [3] was 0 (0). The “FUSOXC growth inhibition rating” value in assay [4] is on record as 9 (100). Also, the “PB” value in assay [5] is recorded as 6 (75 - 89). The “AS (Apple Scab) disease control rating” value in [6] was 0 (0). Also, in assay [7], the “WPM” value is given as 0 (0). Besides, in assay [8], the “TEB” value is 0 (0). The “GDM” value in assay [9] was 0 (0). For the same molecule, the “WLR” value in assay [12] is 0 (0). In addition, the “SBC” value in assay [10] is 0 (0). Besides, the “RB (Rice Blast) disease control rating” value in assay [11] is given as 0 (0).
